The results in this text go back to ChEMBL document CHEMBL1201862, “PubChem BioAssay data set” (2004).

Each structure is given as a SMILES string.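 Cultured in 96-well plates, cells were exposed to test compound for 48 hours across five concentrations. Here, GI50 denotes the concentration required for 50% inhibition of growth.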 Calls of active or inactive are those of the source. Rule as the data show it: active = GI50 up to about 1.1 µM and inactive = higher.

Some test systems named below: A498; CCRF-CEM; DU-145; HCT-116; HOP-62; M14; MOLT-4; Malme-3M; NCI-H226; NCI-H460; OVCAR-8; SK-MEL-5; SN12C; SNB-19; TK-10; U-251; UACC-257; LOX IMVI; OVCAR-3.
Experiment in all cases: DTP human tumour cell line panel, 48 h

The GI50 is the concentration giving 50% growth inhibition.

In the case of `O=C(CCC(=O)CC(O)(C(F)(F)F)C(F)(F)F)CC(O)(C(F)(F)F)C(F)(F)F`, the GI50 in the test on A498 is 0.151 µM (active); in the test with CCRF-CEM, 42.1 µM (inactive); with DU-145, 53.1 µM (inactive); in the test on HCT-116, 46.9 µM (inactive); with HOP-62, 52.5 µM (inactive); in the test on M14 it was 41.2 µM (inactive). Also, the GI50 in the test with MOLT-4 was 41.3 µM (inactive); with Malme-3M, 42.1 µM (inactive); in the test on NCI-H226, 18.8 µM (inactive); in the test with NCI-H460, > 10 µM (inactive); in the test on OVCAR-8, 42.4 µM (inactive); with SK-MEL-5 it was 55.7 µM (inactive). In addition, the GI50 with SN12C is 42.6 µM (inactive); in the test on SNB-19, 24 µM (inactive); in the test on TK-10 it was 56.9 µM (inactive); with U-251, 65 µM (inactive); with UACC-257, 34.4 µM (inactive).
For `Cc1ccc(Cc2n[nH]c(=O)n2Nc2ccccc2)cc1`, the GI50 with A498, with CCRF-CEM, with DU-145, in the test with HCT-116, in the test with HOP-62 and in the test on LOX IMVI was > 100 µM (inactive) throughout. The GI50 in the test on MOLT-4, with Malme-3M, in the test with NCI-H226, in the test on NCI-H460, in the test with OVCAR-3 and in the test with OVCAR-8 was > 100 µM (inactive) each time. The GI50 in the test on SK-MEL-5, in the test on SN12C, in the test on SNB-19, with TK-10, in the test with U-251 and in the test with UACC-257 was > 100 µM (inactive) each time.
As for `CC(=O)NNc1nc(C)c(C(=O)NNC(=O)C(=O)Nc2c(C)cccc2C)s1`, the GI50 in the test on A498 is > 100 µM (inactive); in the test on CCRF-CEM, 32 µM (inactive); in the test on HCT-116, 40.9 µM (inactive); with HOP-62, > 100 µM (inactive); with LOX IMVI it was 18.3 µM (inactive); with M14 it was 54.1 µM (inactive). For the same compound, the GI50 with MOLT-4 is 22.6 µM (inactive); in the test on Malme-3M, 53.1 µM (inactive); with NCI-H226 it was > 100 µM (inactive); in the test with NCI-H460 it was 33 µM (inactive); in the test on OVCAR-3, 26.4 µM (inactive); with OVCAR-8, 26.2 µM (inactive). Moreover, the GI50 was 53 µM (inactive) with SK-MEL-5; > 100 µM (inactive) in the test on SN12C; 61 µM (inactive) in the test with SNB-19; 77.1 µM (inactive) with TK-10; 43.9 µM (inactive) with U-251; 36.1 µM (inactive) in the test with UACC-257.
For `c1ccc2c(c1)N=C(c1cccc3ccccc13)CC(c1cccc3ccccc13)S2` (centres undefined), the GI50 is 7.94 µM (inactive) in the test with A498; 2.05 µM (inactive) in the test with CCRF-CEM; 3.19 µM (inactive) in the test on HCT-116; 9.14 µM (inactive) in the test on HOP-62; 3.48 µM (inactive) with LOX IMVI; 13.2 µM (inactive) with M14. Besides, the GI50 is 2.24 µM (inactive) in the test on MOLT-4; 14.9 µM (inactive) in the test with Malme-3M; 9.84 µM (inactive) in the test on NCI-H226; 3.8 µM (inactive) with NCI-H460; 2.77 µM (inactive) in the test with OVCAR-3; 2.96 µM (inactive) in the test on OVCAR-8. Moreover, the GI50 in the test on SK-MEL-5 was 8.95 µM (inactive); in the test on SN12C, 4.79 µM (inactive); with SNB-19, 4.33 µM (inactive); in the test on TK-10, 12.2 µM (inactive); with U-251, 2.63 µM (inactive); with UACC-257, 14.7 µM (inactive).
As to `COc1ccc(/C=C/c2cc(OC)c(OC)c(OC)c2)cc1OC`, the GI50 is > 74.1 µM (inactive) in the test on A498; > 100 µM (inactive) in the test on CCRF-CEM; > 100 µM (inactive) with HCT-116; 44 µM (inactive) with HOP-62; > 100 µM (inactive) in the test on LOX IMVI; > 100 µM (inactive) in the test on M14. The GI50 in the test on MOLT-4, with Malme-3M, in the test on NCI-H226, in the test with NCI-H460, in the test with OVCAR-3 and in the test on OVCAR-8 was > 100 µM (inactive) each time. For the same compound, the GI50 in the test on SK-MEL-5 was > 74.5 µM (inactive); in the test with SN12C, > 100 µM (inactive); in the test on SNB-19 it was > 100 µM (inactive); with TK-10, > 100 µM (inactive); with U-251 it was > 100 µM (inactive); in the test on UACC-257 it was > 100 µM (inactive).
In the case of `Cc1ccc(/C=C/C(=O)c2cccc3ccccc23)cc1`, the GI50 in the test with A498 is 13.9 µM (inactive); in the test with CCRF-CEM, 15.9 µM (inactive); in the test with HCT-116 it was 11.5 µM (inactive); in the test with HOP-62, 20.7 µM (inactive); in the test with LOX IMVI, > 10 µM (inactive); in the test on M14 it was 19.3 µM (inactive). In addition, the GI50 in the test on MOLT-4 was 13.6 µM (inactive); with Malme-3M, 15.3 µM (inactive); with NCI-H226, 17.8 µM (inactive); in the test with NCI-H460, 15.2 µM (inactive); in the test with OVCAR-3, 17.5 µM (inactive); in the test with OVCAR-8 it was 14.5 µM (inactive). Further, the GI50 was > 10 µM (inactive) with SK-MEL-5; 14.3 µM (inactive) with SN12C; 16.1 µM (inactive) in the test with SNB-19; 15.2 µM (inactive) in the test with TK-10; 13 µM (inactive) in the test on U-251; 18.5 µM (inactive) in the test with UACC-257.
As for `O=C(O)CCC(NC(=O)c1ccc(Nc2nc3ccccc3nc2C(=O)O)cc1)C(=O)O` (centres undefined), the GI50 in the test on CCRF-CEM, in the test on DU-145, in the test with HCT-116, with HOP-62, with M14 and with MOLT-4 was > 100 µM (inactive) in each case. The GI50 in the test with Malme-3M, in the test with OVCAR-3, with OVCAR-8, in the test on SK-MEL-5, with SN12C and in the test with SNB-19 was > 100 µM (inactive) in each case. In addition, the GI50 with TK-10, with U-251 and in the test on UACC-257 was > 100 µM (inactive) throughout.
As for `CN(C(=O)C12C3C4C5C3C1(C(=O)C13C6C7C8C6C1C8C73)C5C42)C(C)(C)C` (centres undefined), the GI50 in the test on A498 was > 50 µM (inactive); in the test with CCRF-CEM, > 24 µM (inactive); with HCT-116 it was 9.55 µM (inactive); in the test with HOP-62 it was > 50 µM (inactive); with LOX IMVI it was > 21 µM (inactive); with M14 it was > 50 µM (inactive). The GI50 with MOLT-4 is 29.2 µM (inactive); with Malme-3M, > 50 µM (inactive); in the test with NCI-H226, > 50 µM (inactive); with NCI-H460, > 32.7 µM (inactive); in the test with OVCAR-3 it was > 50 µM (inactive); in the test with OVCAR-8 it was > 50 µM (inactive). Also, the GI50 with SK-MEL-5, with SN12C, in the test with SNB-19, in the test with TK-10, with U-251 and with UACC-257 was > 50 µM (inactive) each time.
For the compound `Clc1ccc(C2=Nc3ccccc3SC(c3ccc(Cl)c(Cl)c3)C2)c(Cl)c1` (centres undefined), the GI50 in the test on A498 is 20.6 µM (inactive); in the test on CCRF-CEM, 3.11 µM (inactive); in the test with HCT-116, 11.4 µM (inactive); in the test with HOP-62 it was 12.6 µM (inactive); in the test on LOX IMVI it was 8.15 µM (inactive); in the test with M14 it was 16 µM (inactive). Besides, the GI50 in the test with MOLT-4 was 4.9 µM (inactive); in the test on Malme-3M, 16.1 µM (inactive); with NCI-H226, 19 µM (inactive); in the test on NCI-H460 it was 17.3 µM (inactive); in the test on OVCAR-3 it was 13.3 µM (inactive); in the test with OVCAR-8 it was 15.3 µM (inactive). Besides, the GI50 is 18 µM (inactive) in the test on SK-MEL-5; 17.2 µM (inactive) with SN12C; 20.7 µM (inactive) in the test with SNB-19; 20.6 µM (inactive) in the test on TK-10; 17.8 µM (inactive) with U-251; 19.5 µM (inactive) in the test with UACC-257.
For the compound `Clc1ccc(SCCCCCCCCCCSc2ccc(Cl)cc2)cc1`, the GI50 with A498 was > 73.8 µM (inactive); with CCRF-CEM it was > 100 µM (inactive); with HCT-116, > 100 µM (inactive); in the test with HOP-62, > 76.2 µM (inactive); with LOX IMVI, > 100 µM (inactive); with M14, > 100 µM (inactive). Also, the GI50 was > 100 µM (inactive) with MOLT-4; > 56.5 µM (inactive) with Malme-3M; > 100 µM (inactive) in the test with NCI-H226; > 59.7 µM (inactive) in the test with NCI-H460; > 56.8 µM (inactive) with OVCAR-3; > 61 µM (inactive) with OVCAR-8. Also, the GI50 is > 55.1 µM (inactive) in the test with SK-MEL-5; > 100 µM (inactive) in the test with SN12C; > 100 µM (inactive) in the test on SNB-19; > 61.9 µM (inactive) in the test with TK-10; > 57.4 µM (inactive) in the test with U-251; > 57 µM (inactive) in the test with UACC-257.
For `C[C@H]1C(=O)CC[C@]2(C)CCC(C(C)(C)O)CC12O` (some centres undefined), the GI50 in the test with A498, in the test with CCRF-CEM, in the test on HCT-116, with HOP-62, with LOX IMVI and with M14 was > 100 µM (inactive) each time. The GI50 in the test on MOLT-4, in the test with Malme-3M, with NCI-H226, in the test with NCI-H460, in the test on OVCAR-3 and with OVCAR-8 was > 100 µM (inactive) throughout. Also, the GI50 with SK-MEL-5, in the test on SN12C, in the test with SNB-19, in the test with TK-10, with U-251 and in the test with UACC-257 was > 100 µM (inactive) in each case.
